Source: patent publication US20260272878A1, “ADAR1 INHIBITORS AND USES THEREOF” (THE WISTAR INSTITUTE OF ANATOMY AND BIOLOGY, priority 2023, published 2026)
Like-named read-outs stand apart in the source and are kept apart here.

Conditions: mouse, in vivo, ip

N#Cc1ccc(NC(=O)c2c(Cl)c3ccccc3n2CO)cc1 [ADAR1i-124]
Well tolerated dose: up to 50 mg/kg
Well tolerated dose (5 days): up to 50 mg/kg
